Legend:
[1] = Compatibility/stability of the aqueous composition; format: physicochemical; conditions: heptanoic acid alone versus with sulfonate coupler
[2] = system: Staphylococcus aureus ATCC 6538; test: Sanitizing Efficacy/Germicidal and Detergent Sanitizing Action of Disinfectants; format: cell-based; conditions: summary of Table 7, heptanoic acid without coupler
Experimental: Sanitizing Efficacy/Germicidal and Detergent Sanitizing Action of Disinfectants—Final Action
This test measures the sanitizing efficacy against Staphylococcus aureus ATCC 6538 and Escherichia coli ATCC 11229 with a 10% milk challenge at a 15 second exposure time. A 10% milk challenge is achieved by adding 90 ml of the test formulation to 10 ml of milk, mixing, and removing 1 ml for a final volume of 99 ml.

compatibility (stability) of the composition (in words) [1]: less compatibility
SMILES: CCCCCCC(=O)O [heptanoic acid]
antimicrobial efficacy (in words) [2]: satisfactory antimicrobial efficacy
